# Reference: patent US7501430B2 (ArQule, Inc., priority 2006, dated 2009)
# pIC50: −log10 of the molar value.
# Biological target: T1, mutant B-RAF (Homo sapiens, UniProt P15056, V600E)
# T1 construct: purchased Upstate (Charlottesville, Va.)
# Test: RAF biochemical assay (MEK-1 phosphorylation, anti-phospho MEK1/2 detection)
# Conditions: read-out: Mutant B-RAF IC50
# In short: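 Detection is by ELISA: after a 30 min room-temperature reaction, plate-captured GST-MEK-1 is probed with anti-phospho MEK1/2, then an AP-tagged secondary antibody with fluorescent Attophos read-out.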
# T1 sequence (P15056 whole entry V600E): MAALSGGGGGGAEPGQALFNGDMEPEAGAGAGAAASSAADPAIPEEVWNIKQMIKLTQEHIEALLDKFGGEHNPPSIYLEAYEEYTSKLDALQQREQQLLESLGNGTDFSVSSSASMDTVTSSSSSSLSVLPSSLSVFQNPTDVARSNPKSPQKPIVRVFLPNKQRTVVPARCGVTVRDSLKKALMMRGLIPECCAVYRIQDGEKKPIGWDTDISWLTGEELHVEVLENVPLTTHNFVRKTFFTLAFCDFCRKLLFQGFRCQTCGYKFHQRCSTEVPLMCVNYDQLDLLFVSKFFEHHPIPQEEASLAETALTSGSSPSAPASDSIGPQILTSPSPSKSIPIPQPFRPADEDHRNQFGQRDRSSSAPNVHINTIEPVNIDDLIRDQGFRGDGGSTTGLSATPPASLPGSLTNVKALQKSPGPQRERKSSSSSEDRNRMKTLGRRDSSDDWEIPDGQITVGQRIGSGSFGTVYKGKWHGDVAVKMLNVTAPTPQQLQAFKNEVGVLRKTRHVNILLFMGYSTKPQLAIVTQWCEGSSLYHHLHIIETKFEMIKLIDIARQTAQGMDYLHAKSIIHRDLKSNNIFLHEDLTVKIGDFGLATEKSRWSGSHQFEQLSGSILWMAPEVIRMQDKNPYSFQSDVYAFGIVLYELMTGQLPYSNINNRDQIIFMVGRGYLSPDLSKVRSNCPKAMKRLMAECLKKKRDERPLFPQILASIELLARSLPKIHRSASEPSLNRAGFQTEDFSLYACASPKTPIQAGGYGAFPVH
row,pIC50,Structure (SMILES)
1,5.61,"N#Cc1ccc(-c2nc3sccn3c2-c2ccnc(N[C@@H]3CCCN(S(=O)(=O)c4ccc(Cl)cc4)C3)n2)cc1 [Example 360, 4-{5-[2-({(3R)-1-[(4-chlorophenyl)sulfonyl]piperidin-3-yl}amino)pyrimidin-4-yl]imidazo[2,1-b][1,3]thiazol-6-yl}benzonitrile]"
2,5.49,"CCOC(=O)c1ccc(-c2nc3sccn3c2-c2ccnc(N[C@@H]3CCCN(S(=O)(=O)c4ccc(Cl)cc4)C3)n2)cc1 [Example 361, ethyl 4-{5-[2-({(3R)-1-[(4-chlorophenyl)sulfonyl]piperidin-3-yl}amino)pyrimidin-4-yl]imidazo[2,1-b][1,3]thiazol-6-yl}benzoate]"
3,7.52,"Cc1nc(-c2cccc(-c3nc4sccn4c3-c3ccnc(N[C@@H]4CCCNC4)n3)c2)no1 [Example 365, 4-{6-[3-(5-methyl-1,2,4-oxadia-zol-3-yl)phenyl]imidazo[2,1-b][1,3]thiazol-5-yl}-N-[(3R)-piperidin-3-yl]pyrimidin-2-amine]"
4,7.96,"Cn1cnc(S(=O)(=O)N2CCC[C@@H](Nc3nccc(-c4c(-c5cccc(O)c5)nc5sccn45)n3)C2)c1 [Example 366, 3-{5-[2-({(3R)-1-[(1-methyl-1H-imidazol-4-yl)sulfonyl]piperidin-3-yl}amino)pyrimidin-4-yl]imidazo[2,1-b][1,3]thiazol-6-yl}phenol]"
5,8.52,"O=S(=O)(c1ccsc1)N1CCC[C@@H](Nc2nccc(-c3c(-c4cccc(O)c4)nc4sccn34)n2)C1 [Example 367, 3-[5-(2-{[(3R)-1-(3-thienylsulfonyl)piperidin-3-yl]amino}pyrimidin-4-yl)imidazo[2,1-b][1,3]thiazol-6-yl]phenol]"
6,< 5.52,"CC(C)S(=O)(=O)N1CCC[C@@H](Nc2nccc(-c3c(-c4cccc(O)c4)nc4sccn34)n2)C1 [Example 368, 3-[5-(2-{[(3R)-1-(isopropylsulfonyl)piperidin-3-yl]amino}pyrimidin-4-yl)imidazo[2,1-b][1,3]thiazol-6-yl]phenol]"
7,< 5.52,"O=S(=O)(Cc1ccccc1)N1CCC[C@@H](Nc2nccc(-c3c(-c4cccc(O)c4)nc4sccn34)n2)C1 [Example 369, 3-[5-(2-{[(3R)-1-(benzylsulfonyl)piperidin-3-yl]amino}pyrimidin-4-yl)imidazo[2,1-b][1,3]thiazol-6-yl]phenol]"
8,5.92,"CCCS(=O)(=O)N1CCC[C@@H](Nc2nccc(-c3c(-c4cccc(O)c4)nc4sccn34)n2)C1 [Example 370, 3-[5-(2-{[(3R)-1-(propylsulfonyl)piperidin-3-yl]amino}pyrimidin-4-yl)imidazo[2,1-b][1,3]thiazol-6-yl]phenol]"
9,8.52,"O=S(=O)(c1cccs1)N1CCC[C@@H](Nc2nccc(-c3c(-c4cccc(O)c4)nc4sccn34)n2)C1 [Example 371, 3-[5-(2-{[(3R)-1-(2-thienylsulfonyl)piperidin-3-yl]amino}pyrimidin-4-yl)imidazo[2,1-b][1,3]thiazol-6-yl]phenol]"
10,8.52,"O=S(=O)(c1ccccc1)N1CCC[C@@H](Nc2nccc(-c3c(-c4cccc(O)c4)nc4sccn34)n2)C1 [Example 372, 3-[5-(2-{[(3R)-1-(phenylsulfonyl)piperidin-3-yl]amino}pyrimidin-4-yl)imidazo[2,1-b][1,3]thiazol-6-yl]phenol]"
11,< 5.52,"CCS(=O)(=O)N1CCC[C@@H](Nc2nccc(-c3c(-c4cccc(O)c4)nc4sccn34)n2)C1 [Example 373, 3-[5-(2-{[(3R)-1-(ethylsulfonyl)piperidin-3-yl]amino}pyrimidin-4-yl)imidazo[2,1-b][1,3]thiazol-6-yl]phenol]"
12,9.00,"CC(=O)Nc1ccc(S(=O)(=O)N2CCC[C@@H](Nc3nccc(-c4c(-c5cccc(O)c5)nc5sccn45)n3)C2)cc1 [Example 374, N-(4-{[(3R)-3-({4-[6-(3-hydroxyphenyl)imidazo[2,1-b][1,3]thiazol-5-yl]pyrimidin-2-yl}amino)piperidin-1-yl]sulfonyl}phenyl)acetamide]"
13,< 5.52,"O=S(=O)(CC(F)(F)F)N1CCC[C@@H](Nc2nccc(-c3c(-c4cccc(O)c4)nc4sccn34)n2)C1 [Example 375, 3-{5-[2-({(3R)-1-[(2,2,2-trifluoroethyl)sulfonyl]piperidin-3-yl}amino)pyrimidin-4-yl]imidazo[2,1-b][1,3]thiazol-6-yl}phenol]"
14,9.00,"Cn1ccc(S(=O)(=O)N2CCC[C@@H](Nc3nccc(-c4c(-c5cccc(O)c5)nc5sccn45)n3)C2)n1 [Example 376, 3-{5-[2-({(3R)-1-[(1-methyl-1H-pyrazol-3-yl)sulfonyl]piperidin-3-yl}amino)pyrimidin-4-yl]imidazo[2,1-b][1,3]thiazol-6-yl}phenol]"
15,7.07,"NS(=O)(=O)Oc1cccc(-c2nc3sccn3c2-c2ccnc(N[C@@H]3CCCN(S(=O)(=O)c4ccc(Cl)cc4)C3)n2)c1 [Example 377, 3-{5-[2-({(3R)-1-{(4-chlorophenyl)sulfonyl]piperidin-3-yl}amino)pyrimidin-4-yl]imidazo[2,1-b][1,3]thiazol-6-yl}phenyl sulfamate]"
16,5.65,"O=S(=O)(c1ccc(Cl)cc1)N1CCC[C@@H](Nc2nccc(-c3c(-c4ccc(CO)cc4)nc4sccn34)n2)C1 [Example 378, (4-{5-[2-({(3R)-1-[(4-chlorophenyl)sulfonyl]piperidin-3-yl}amino)pyrimidin-4-yl]imidazo[2,1-b][1,3]thiazol-6-yl}phenyl)methanol]"
17,5.57,"NC(=O)c1ccc(-c2nc3sccn3c2-c2ccnc(N[C@@H]3CCCN(S(=O)(=O)c4ccc(Cl)cc4)C3)n2)cc1 [Example 379, 4-{5-[2-({(3R)-1-[(4-chlorophenyl)sulfonyl]piperidin-3-yl}amino)pyrimidin-4-yl]imidazo[2,1-b][1,3]thiazol-6-yl}benzamide]"
18,5.80,"NS(=O)(=O)Oc1cccc(-c2nc3occn3c2-c2ccnc(N[C@@H]3CCCN(S(=O)(=O)c4ccc(Cl)cc4)C3)n2)c1 [Example 380, 3-{5-[2-({(3R)-1-[(4-chlorophenyl)sulfonyl]piperidin-3-yl}amino)pyrimidin-4-yl]imidazo[2,1-b][1,3]oxazol-6-yl}phenyl sulfamate]"
19,7.82,"O=S(=O)(c1nnc[nH]1)N1CCC[C@@H](Nc2nccc(-c3c(-c4cccc(O)c4)nc4sccn34)n2)C1 [Example 381, 3-[5-(2-{[(3R)-1-(4H-1,2,4-tri-azol-3-ylsulfonyl)piperidin-3-yl]amino}pyrimidin-4-yl)imidazo[2,1-b][1,3]thiazol-6-yl]phenol]"
20,5.92,"O=C(O)c1cccc(-c2nc3sccn3c2-c2ccnc(N[C@@H]3CCCN(S(=O)(=O)c4ccc(Cl)cc4)C3)n2)c1 [Example 382, 3-{5-[2-({(3R)-1-[(4-chlorophenyl)sulfonyl]piperidin-3-yl}amino)pyrimidin-4-yl]imidazo[2,1-b][1,3]thiazol-6-yl}benzoic acid]"
21,5.89,"CC(=O)c1cccc(-c2nc3sccn3c2-c2ccnc(N[C@@H]3CCCN(S(=O)(=O)c4ccc(Cl)cc4)C3)n2)c1 [Example 384, 1-(3-{5-[2-({(3R)-1-[(4-chlorophenyl)sulfonyl]piperidin-3-yl)amino)pyrimidin-4-yl]imidazo[2,1-b][1,3]thiazol-6-yl}phenyl)ethanone]"
22,6.06,"O=Cc1ccc(-c2nc3sccn3c2-c2ccnc(N[C@@H]3CCCN(S(=O)(=O)c4ccc(Cl)cc4)C3)n2)cc1 [Example 385, 4-{5-[2-({(3R)-1-[(4-chlorophenyl)sulfonyl]piperidin-3-yl}amino)pyrimidin-4-yl]imidazo[2,1-b][1,3]thiazol-6-yl}benzaldehyde]"
23,< 5.52,"CCCOC(=O)N1CCC(Nc2nccc(-c3c(-c4cccc(O)c4)nc4sccn34)n2)CC1 [Example 387, propyl 4-({4-[6-(3-hydroxyphenyl)imidazo[2,1-b][1,3]thiazol-5-yl]pyrimidin-2-yl}amino)piperidine-1-carboxylate]"
24,8.05,"O=S(=O)(c1cccs1)N1CCC[C@@H](Nc2nccc(-c3c(-c4cccc(O)c4)nc4occn34)n2)C1 [Example 388, 3-[5-(2-{[(3R)-1-(2-thienylsulfonyl)piperidin-3-yl]amino}pyrimidin-4-yl)imidazo[2,1-b][1,3]oxazol-6-yl]phenol]"
25,7.47,"C/C(=N\O)c1cccc(-c2nc3sccn3c2-c2ccnc(N[C@@H]3CCCN(S(=O)(=O)c4ccc(Cl)cc4)C3)n2)c1 [Example 389, (1E)-1-(3-{5-[2-({(3R)-1-[(4-chlorophenyl)sulfonyl]piperidin-3-yl}amino)pyrimidin-4-yl]imidazo[2,1-b][1,3]thiazol-6-yl}phenyl)ethanone oxime]"
26,6.55,"O=Cc1cccc(-c2nc3sccn3c2-c2ccnc(N[C@@H]3CCCN(S(=O)(=O)c4ccc(Cl)cc4)C3)n2)c1 [Example 390, 3-{5-[2-({(3R)-1-[(4-chlorophenyl)sulfonyl]piperidin-3-yl}amino)pyrimidin-4-yl]imidazo[2,1-b][1,3]thiazol-6-yl}benzaldehyde]"
27,< 5.52,"O=S(=O)(Cc1ccccc1)N1CCC[C@@H](Nc2nccc(-c3c(-c4cccc(O)c4)nc4occn34)n2)C1 [Example 391, 3-[5-(2-{[(3R)-1-(benzylsulfonyl)piperidin-3-yl]amino}pyrimidin-4-yl)imidazo[2,1-b][1,3]oxazol-6-yl]phenol]"

row,Structure (SMILES),pIC50
1,"NC(=O)Oc1cccc(-c2nc3sccn3c2-c2ccnc(N[C@@H]3CCCN(S(=O)(=O)c4ccc(Cl)cc4)C3)n2)c1 [Example 364, 3-{5-[2-({(3R)-1-[(4-chlorophenyl)sulfonyl]piperidin-3-yl}amino)pyrimidin-4-yl]imidazo[2,1-b][1,3]thiazol-6-yl}phenyl carbamate]",8.15
2,"NC(=O)Oc1cccc(-c2nc3occn3c2-c2ccnc(N[C@@H]3CCCN(S(=O)(=O)c4ccc(Cl)cc4)C3)n2)c1 [Example 386, 3-{5-[2-({(3R)-1-[(4-chlorophenyl)sulfonyl]piperidin-3-yl}amino)pyrimidin-4-yl]imidazo[2,1-b][1,3]oxazol-6-yl}phenyl carbamate]",6.96
